This passage reports T/C results from PubChem BioAssay AID226 (DTP/NCI, 2004).

This experiment relates to B6C3F1 mice, intracerebral ependymoblastoma, median survival T/C. The experiment is described as follows: NCI In Vivo Anticancer Drug Screen. Data for tumor model Ependymoblastoma (intracerebral) in B6C3F1 mice. The settings on record: endpoint: median survival time, higher = longer survival. The protocol: The antitumor activity of compounds was measured in mice bearing transplantable tumors. Survival or tumor size were measured and the results are expressed as the measurement made in the treated group (T) divided by the measurement made in the vehicle treated control group (C). The tumor model used in this assay is Ependymoblastoma (intracerebral) in B6C3F1 mice

Setting [1] is: dose: 0.5 mg/kg/injection, schedule: Q01DX005 (ip), vehicle: water.
[2] abbreviates: dose: 1.0 mg/kg/injection, schedule: Q01DX005 (ip), vehicle: water.
[3] abbreviates: dose: 2.0 mg/kg/injection, schedule: Q01DX005 (ip), vehicle: water.
The mark [4] stands for this setting: dose: 16.0 mg/kg/injection, schedule: Q01DX005 (ip), vehicle: saline with Tween-80.
The mark [5] stands for this setting: dose: 32.0 mg/kg/injection, schedule: Q01DX005 (ip), vehicle: saline with Tween-80.
The mark [6] stands for this setting: dose: 64.0 mg/kg/injection, schedule: Q01DX005 (ip), vehicle: saline with Tween-80.
Where [7] appears, read: dose: 256.0 mg/kg/injection, schedule: Q01DX005 (ip), vehicle: saline with Tween-80.

The structures appear in SMILES notation. “And” between values parts separate entries of the source, which are not always exact repeats. Equal entries are not always repeated. Toxic doses and inconclusive results are not listed.

On to `COc1cc(NC(=O)CN(CCCl)CCCl)cc(OC)c1OC`, for which the T/C is 113 % of control (dose: 25.0 mg/kg/injection, schedule: Q01DX009 (ip), vehicle: saline with Tween-80) and 113 % of control (dose: 50.0 mg/kg/injection, schedule: Q01DX009 (ip), vehicle: saline with Tween-80).
In the case of `COc1cccc2c1C(=O)c1c(O)c3c(c(O)c1C2=O)C[C@@](O)(C(C)=O)C[C@@H]3OC1CC(N)C(O)C(C)O1` (some centres undefined), the T/C is, setting by setting: (dose: 0.12 mg/kg/injection, schedule: Q01DX005 (ip), vehicle: water) 105 % of control; (dose: 0.25 mg/kg/injection, schedule: Q01DX005 (ip), vehicle: water) 102 % of control; under setting [1], 93 % of control and 105 % of control; under setting [2], 92 % of control and 93 % of control; under setting [3], 104 % of control.
For the compound `CC(=O)OCC1OC(n2cnc3c(=S)nc(N)[nH]c32)C(OC(C)=O)C1OC(C)=O` (centres undefined), the T/C is, setting by setting: (dose: 3.12 mg/kg/injection, schedule: Q01DX005 (ip), vehicle: saline) 102 % of control and 109 % of control; (dose: 6.25 mg/kg/injection, schedule: Q01DX005 (ip), vehicle: saline) 104 % of control and 105 % of control and 116 % of control; (dose: 12.5 mg/kg/injection, schedule: Q01DX005 (ip), vehicle: saline) 98 % of control and 110 % of control; (dose: 25.0 mg/kg/injection, schedule: Q01DX005 (ip), vehicle: saline) 104 % of control.
Consider `CC(C)c1cc(C(=O)O)c(O)c(C(C)C)c1.CC(C)c1cc(C(=O)O)c(O)c(C(C)C)c1.[Cu]`, for which the T/C reads like this: (dose: 6.25 mg/kg/injection, schedule: Q01DX005 (ip), vehicle: saline with Tween-80) 103 % of control; (dose: 12.5 mg/kg/injection, schedule: Q01DX005 (ip), vehicle: saline with Tween-80) 103 % of control.
As for `NC(C/[N+]([O-])=N/O)C(=O)O` (centres undefined), the T/C reads like this: (dose: 7.0 mg/kg/injection, schedule: Q01DX005 (ip), vehicle: saline with Tween-80) 111 % of control; (dose: 12.5 mg/kg/injection, schedule: Q01DX009 (ip), vehicle: Klucel (hydroxypropylcellulose) (HPC)) 110 % of control; (dose: 14.0 mg/kg/injection, schedule: Q01DX005 (ip), vehicle: saline with Tween-80) 109 % of control; under setting [4], 114 % of control; (dose: 25.0 mg/kg/injection, schedule: Q01DX009 (ip), vehicle: Klucel (hydroxypropylcellulose) (HPC)) 119 % of control; (dose: 28.0 mg/kg/injection, schedule: Q01DX005 (ip), vehicle: saline with Tween-80) 118 % of control. In addition, the T/C reads like this: under setting [5], 118 % of control; (dose: 50.0 mg/kg/injection, schedule: Q01DX009 (ip), vehicle: Klucel (hydroxypropylcellulose) (HPC)) 112 % of control; (dose: 56.0 mg/kg/injection, schedule: Q01DX005 (ip), vehicle: saline with Tween-80) 119 % of control; under setting [6], 117 % of control; (dose: 112.0 mg/kg/injection, schedule: Q01DX005 (ip), vehicle: saline with Tween-80) 122 % of control; under setting [7], 109 % of control.
For `O=C(O)c1ccc(C(=O)O)c(C(=O)O)c1.[NH-]C1CCCCC1[NH-].[Pt+2]`, the T/C is 92 % of control and 101 % of control (dose: 0.25 mg/kg/injection, schedule: Q01DX005 (ip), vehicle: dextrose); 100 % of control and 118 % of control (dose: 0.5 mg/kg/injection, schedule: Q01DX005 (ip), vehicle: dextrose); 95 % of control and 100 % of control (dose: 1.0 mg/kg/injection, schedule: Q01DX005 (ip), vehicle: dextrose); 100 % of control and 105 % of control (dose: 2.0 mg/kg/injection, schedule: Q01DX005 (ip), vehicle: dextrose); 98 % of control and 114 % of control (dose: 4.0 mg/kg/injection, schedule: Q01DX005 (ip), vehicle: dextrose).
Consider `OC(C1CO1)C(O)C1CO1` (centres undefined), for which the T/C (dose: 0.25 mg/kg/injection, schedule: Q01DX005 (ip), vehicle: saline) is 112 % of control; the T/C under setting [1] is 115 % of control; the T/C (dose: 1.0 mg/kg/injection, schedule: Q01DX001 (ip), vehicle: saline) is 94 % of control and 121 % of control; the T/C under setting [2] is 112 % of control; the T/C (dose: 1.0 mg/kg/injection, schedule: Q#A X002 (ip), vehicle: water) was 105 % of control; the T/C (dose: 2.0 mg/kg/injection, schedule: Q01DX001 (ip), vehicle: saline) is 113 % of control. Moreover, the T/C (dose: 2.0 mg/kg/injection, schedule: Q01DX001 (ip), vehicle: water) was 105 % of control and 110 % of control and 118 % of control; the T/C under setting [3] was 124 % of control; the T/C (dose: 2.0 mg/kg/injection, schedule: Q#A X002 (ip), vehicle: water) is 112 % of control; the T/C (dose: 4.0 mg/kg/injection, schedule: Q01DX001 (ip), vehicle: saline) was 113 % of control; the T/C (dose: 4.0 mg/kg/injection, schedule: Q01DX001 (ip), vehicle: water) is 116 % of control and 117 % of control; the T/C (dose: 4.0 mg/kg/injection, schedule: Q01DX005 (ip), vehicle: water) is 181 % of control. For the same compound, the T/C (dose: 8.0 mg/kg/injection, schedule: Q01DX001 (ip), vehicle: saline) is 113 % of control; the T/C (dose: 8.0 mg/kg/injection, schedule: Q01DX001 (ip), vehicle: water) was 151 % of control; the T/C (dose: 8.0 mg/kg/injection, schedule: Q#A X002 (ip), vehicle: water) is 175 % of control; the T/C (dose: 16.0 mg/kg/injection, schedule: Q01DX001 (ip), vehicle: saline) was 150 % of control and 166 % of control; the T/C (dose: 16.0 mg/kg/injection, schedule: Q01DX001 (ip), vehicle: water) is 175 % of control.
`O=NN(CCF)C(=O)NC1C(O)CCCC1O` (centres undefined): the T/C reads like this: (dose: 5.18 mg/kg/injection, schedule: Q01DX005 (ip), vehicle: Klucel (hydroxypropylcellulose) (HPC)) 189 % of control; (dose: 8.64 mg/kg/injection, schedule: Q01DX005 (ip), vehicle: Klucel (hydroxypropylcellulose) (HPC)) 230 % of control; (dose: 13.0 mg/kg/injection, schedule: Q01DX001 (ip), vehicle: saline) 115 % of control; (dose: 14.4 mg/kg/injection, schedule: Q01DX005 (ip), vehicle: Klucel (hydroxypropylcellulose) (HPC)) 357 % of control; (dose: 24.0 mg/kg/injection, schedule: Q01DX005 (ip), vehicle: Klucel (hydroxypropylcellulose) (HPC)) 111 % of control; (dose: 36.0 mg/kg/injection, schedule: Q01DX001 (ip), vehicle: saline) 159 % of control. For the same compound, the T/C by setting is: (dose: 60.0 mg/kg/injection, schedule: Q01DX001 (ip), vehicle: saline) 247 % of control; (dose: 100.0 mg/kg/injection, schedule: Q01DX001 (ip), vehicle: saline) 157 % of control.
Turning to `CCC(=O)O[C@H]1CC[C@H]2[C@@H]3CC[C@H]4CC(=O)[C@H](C)C[C@]4(C)[C@H]3CC[C@]12C`, the T/C (dose: 8.0 mg/kg/injection, schedule: Q01DX005 (ip), vehicle: Klucel (hydroxypropylcellulose) (HPC)) was 95 % of control and 102 % of control; the T/C (dose: 8.0 mg/kg/injection, schedule: Q01DX005 (ip), vehicle: saline with Tween-80) is 98 % of control and 108 % of control; the T/C (dose: 16.0 mg/kg/injection, schedule: Q01DX005 (ip), vehicle: Klucel (hydroxypropylcellulose) (HPC)) was 90 % of control and 101 % of control; the T/C under setting [4] is 95 % of control and 96 % of control; the T/C (dose: 32.0 mg/kg/injection, schedule: Q01DX005 (ip), vehicle: Klucel (hydroxypropylcellulose) (HPC)) is 97 % of control and 99 % of control; the T/C under setting [5] is 103 % of control and 107 % of control. Besides, the T/C reads like this: (dose: 64.0 mg/kg/injection, schedule: Q01DX005 (ip), vehicle: Klucel (hydroxypropylcellulose) (HPC)) 95 % of control and 101 % of control; under setting [6], 98 % of control and 111 % of control; (dose: 128.0 mg/kg/injection, schedule: Q01DX005 (ip), vehicle: Klucel (hydroxypropylcellulose) (HPC)) 98 % of control and 87 % of control; (dose: 128.0 mg/kg/injection, schedule: Q01DX005 (ip), vehicle: saline with Tween-80) 106 % of control and 108 % of control; (dose: 256.0 mg/kg/injection, schedule: Q01DX005 (ip), vehicle: Klucel (hydroxypropylcellulose) (HPC)) 93 % of control and 87 % of control; under setting [7], 97 % of control and 113 % of control. Also, the T/C reads like this: (dose: 512.0 mg/kg/injection, schedule: Q01DX005 (ip), vehicle: Klucel (hydroxypropylcellulose) (HPC)) 87 % of control; (dose: 512.0 mg/kg/injection, schedule: Q01DX005 (ip), vehicle: saline with Tween-80) 97 % of control and 101 % of control.
